Experimental data published in patent US5034520A, “Process for recovering heparinic oligosaccharides with an affinity for cell growth factors” (Sanofi, priority 1986, dated 1991).

What was measured:
[1] = system: human endothelial cells of the umbilical vein; test: Proliferation of human umbilical vein endothelial cells, with or without FGFa; format: cell-based
Method: At confluence (5-7 days), the cells are detached by an EDTA-trypsin mixture.
48 hours latter, growth factor is added again. After 4 days of culture, the cells are detached by the EDTA-trypsin mixture and the cells are counted by means of a cell counter (Coulter Counter ® Coultronics). Each experimental curve (FIG. 14A-D) represents a typical experiment conducted in triplicate. Each experiment is repeated 2 to 3 times.

[2] = system: LE II cells (endothelial cells of mouse lung); test: Tritiated thymidine incorporation in quiescent LE II cells, with or without anionic FGF; format: cell-based
Method: LE II cells (endothelial cells of mouse lung) are cultivated on plates containing 24 wells in the presence of 10% foetal calf serum until 3/4 of confluence is attained.
The cells are then maintained for 48 hours in only 0.2% serum and rendered quiescent.
The growth medium is then supplemented with either fibroblast growth factor (FGF) or the oligosaccharide fragments to be tested or both products simultaneously (FGF+product to be tested).
The culture is maintained for a further 24 hours and tritiated thymidine is added 4 hours before the end of the experiment.
The radioactivity incorporated is then counted; each measurement is made in triplicate.

FGFa: acidic FGF (FGFa)
ED 50 of FGFa (50% of maximal proliferation) ([1]; FGFa in the absence of oligosaccharides, 10% FCS): about 7 ng/ml
maximal increase of the number of cells ([1]; FGFa without oligosaccharides, versus 10% FCS alone): 230%

B1: anionic FGF: anionic FGF prepared from beef brain according to Lobb and Fett (protein, UniProt P03968 16-155, looked up)
Fibroblast growth factor 1: FNLPLGNYKKPKLLYCSNGGYFLRILPDGTVDGTKDRSDQHIQLQLCAESIGEVYIKSTETGQFLAMDTDGLLYGSQTPNEECLFLERLEENHYNTYISKKHAEKHWFVGLKKNGRSKLGPRTHFGQKAILFLPLPVSSD
dose giving plateau of stimulation ([2]; anionic FGF alone (FIG. 10)): 5 ng/mL
plateau of thymidine incorporation after stimulation ([2]; anionic FGF alone, 5 ng/ml (FIG. 10)): 126,000 cpm
